Measurements taken from patent US8552035B2, “Phenanthrenone compounds, compositions and methods” (Pfizer Inc., priority 2008, dated 2013).

Legend:
IL-1β = test: LPS-induced human whole blood, IL-1β release; type: cell-based
Experimental: Venous blood from human donors was collected as 10 ml aliquots in tubes containing sodium heparin (BD Vacutainer from Becton Dickinson and Company, Franklin Lakes, N.Y.). Blood was added to sterile polystyrene round bottom 96-well tissue culture plates (Corning Costar) at 180 Blood was placed in a humidified 37 C incubator with 5% CO2 while compounds were prepared (nearly 60 minutes).
Compounds were prepared from 10 mM stock solutions in dimethylsulfoxide (DMSO, Sigma-Aldrich). Stock compound was diluted in DMSO to give appropriate starting concentration then diluted serially 1/3 in DMSO (i.e. 15 μl compound+30 μl DMSO), followed by diluting each serial dilution 1/167 into vehicle solution (2% DMSO in phosphate buffered saline (Dulbecco's Phosphate Buffered Saline without calcium chloride without magnesium chloride, Invitrogen Corporation, Carlsbad Calif.)). Compound or vehicle was added to blood in 10 μl aliquots as triplicates, omitting the outside wells to minimize possible edge effects. The final highest concentration of each compound in the assay ranged from 3 to 0.3 μM. Final DMSO concentration in the assay was 0.1%. The plate containing the samples was gently vortexed to mix and replaced in the incubator. LPS stock (E. coli serotype 0111:B4, Sigma-Aldrich), stored in aliquots of 100 μg/ml in RPMI at −20° C., was diluted […] in RPMI to make a working stock solution. After 60 minutes of incubation, 10 μl of the prepared LPS working stock was added to the blood to a final concentration of 100 ng/ml. Wells to be used as negative control received RPMI media with no LPS. The plate was again gently vortexed and the plates incubated overnight for 22 hours. Following incubation, the blood was centrifuged at 1500×g for 5 minutes and the plasma removed to either freeze at −20° C. or assay for cytokine release.
IL-1β, IFNγ and TNFα protein levels were measured using Meso Scale assay kits (Meso Scale Discovery, Gaithersburg, Md., U.S.A.). Reagents were allowed to come to room temperature. Meso Scale plates were blocked with 150 μl of Meso Scale Block B diluent, gently shaking at room temperature for 60 minutes. Plates were washed 3× with wash buffer (PBS, Invitrogen Corporation, with 0.05% Tween-20, Sigma-Aldrich). Calibrators for standard curves were prepared in human plasma/serum assay diluent as a 1/5 serial dilution to achieve final concentrations ranging from 50000 pg/ml to 3.2 pg/ml. Samples were added at 10 to 20 μl/well and calibrators were added at 20 μl/well then incubated at room temperature with gentle shaking for 2 hours. Plates were again washed 3× with wash buffer. Detection antibody was diluted in human plasma/serum antibody diluent to 1 μg/ml and added to the plate at 20 μl/well. Plates were incubated as before for 2 hours and washed again. Read Buffer T (4×) was diluted 1:1 with mqH20 to 2× concentration and 150 μl added to each well. Plates were read on the SECTOR Imager 6000 (Meso Scale Discovery) to generate raw signal values.
Individual sample signal values were compared to positive and negative controls (vehicle treated blood with LPS and vehicle treated blood without LPS, respectively) to generate % inhibition. Triplicate values were averaged for each donor. The values for three or four donors were averaged and graphed using 4-parameter fit curves in the LabStats plug-in for the Microsoft Excel application.

serum insulin = test: 28-day mouse side-effect model, serum insulin; type: in vivo; conditions: oral gavage 28 days
Experimental: 10-12 week old female Swiss Webster mice (Taconic, Germantown, N.Y., U.S.A.) weighing 27-29 grams are used in accordance with the guidelines of the Institutional Animal Care and Use Committee and in accordance with NIH guidelines on laboratory animal welfare. Mice are acclimated to the Pfizer animal facility for 3-7 days prior to being placed on study. Prednisolone and DAGR compounds are administered by oral gavage for a total of 28 days. Each treatment group generally contains 8-10 mice. To establish a dosing regimen for the studies, a pilot pharmacodynamic time course experiment is conducted to quantify TNFa repression after a single ED80 dose (determined from the acute LPS endotoxemia mouse model). […] DAGR compounds vary in their required frequency of doses.
Body weights are measured on the first and last day of each experiment. Blood samples are obtained after ˜3 weeks of dosing for steady-state pharmacokinetic analysis. To assess compound effects on LPS-induced TNF-a, all mice receive an intraperitoneal injection of LPS (Salmonella Typhosa, Sigma, St. Louis, L-7895) 2.5 hr after the last dose on day 28. Mice are sacrificed 90 min. after LPS administration. Serum samples are assayed for osteocalcin and TNFa using the Linco multiplex assay (St. Charles, Mo.) and Luminex 100 (Austin, Tex.). Samples are diluted 1:20 and the assay is run according to manufacturer's instructions. An osteocalcin standard is purchased separately from Biomedical Technologies Incorporated (Stoughton, Mass.). Serum insulin is measured to assess compound effects on insulin resistance. Insulin was measured using the UltraSensitive Mouse EIA kit from Alpco Diagnostics (Salem, N.H.) following the manufacturer's protocol.
ED50 and ED80 values are obtained for the various parameters using four-parameter logistic fits of data. For each experiment/dose group, outliers are detected by calculating the number of standard deviations each mouse's value was from the mean of their group and then dividing by the standard deviation of the group. The means and standard deviations used in this calculation omitted the value being examined so that, if it were an outlier, it would have no influence. If the value being examined is more than 2.5 standard deviations from the mean, it was not used in the rest of the calculations.
Percent inhibition values are then calculated for each animal using the means of the vehicle and 10 mpk prednisone control groups. The individual mouse percent inhibition values are then fit to a four-parameter logistic model using the area under curve mean for each group. Since all four parameters are estimated and the lower plateau is not fixed at 0% and the upper plateau was not fixed at 100%, the ED50 and ED80 values are calculated by using an inverse calibration formula for a response equal to 50% or 80%. The designation “nd” means not determined.

Cc1ncccc1NC(=O)c1ccc2c(c1)C(=O)C[C@@H]1C[C@@](O)(c3ccccc3)[C@](C)(O)C[C@@]21Cc1ccccc1 [Example 1, (4bR,6R,7R,8aS)-4b-benzyl-6,7-dihydroxy-6-methyl-N-(2-methylpyridin-3-yl)-10-oxo-7-phenyl-4b,5,6,7,8,8a,9,10-octahydrophenanthrene-2-carboxamide]
inhibition at 0.000137174 µM (IL-1β; Homo sapiens, 0.137174 nM, mean of donors): -0.94%
inhibition at 0.000411523 µM (IL-1β; Homo sapiens, 0.411523 nM, mean of donors): -1.08%
inhibition at 0.00123457 µM (IL-1β; Homo sapiens, 1.234568 nM, mean of donors): 1.18%
inhibition at 0.0037037 µM (IL-1β; Homo sapiens, 3.703704 nM, mean of donors): 5.14%
inhibition at 0.0111111 µM (IL-1β; Homo sapiens, 11.11111 nM, mean of donors): 15.4%
inhibition at 0.0333333 µM (IL-1β; Homo sapiens, 33.33333 nM, mean of donors): 26.4%
inhibition at 0.1 µM (IL-1β; Homo sapiens, 100 nM, mean of donors): 37.6%
inhibition at 0.3 µM (IL-1β; Homo sapiens, 300 nM, mean of donors): 38%
level of inhibition of IL-1 (IL-1β; ex vivo LPS-stimulated human whole blood, extent of inhibition, concentration not given): 38%
ED50 at 28 days (serum insulin; female, Swiss Webster, read-out: Insulin (ED50 dose)): 1.28 mg/kg
Insulin (ED80 dose) (serum insulin): 5.89
